Assay results from patent publication US10294202B2, “Pyrrolidinones as herbicides” (FMC Corporation, priority 2013, dated 2019).

Tests used:
lambsquarters = experiment: Test C pre-/postemergence herbicide test; format: in vivo, Chenopodium album
Summary of the method: (§1)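 Greenhouse plants scored visually against untreated controls 13–15 days after treatment, 0 = no effect, 100 = complete control. Test chemicals in a non-phytotoxic solvent with surfactant were applied either to soil (loam/sand) at planting or to foliage of 1- to 4-leaf plants, 2–18 cm tall.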

oat, wild = experiment: Test C pre-/postemergence herbicide test; format: in vivo, Avena fatua; details: Postemergence
Summary of the method: as §1

barnyardgrass [1] = experiment: Test A pre-/postemergence herbicide test; format: in vivo, Echinochloa crus-galli
Summary of the method: (§2)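 Visual 0–100 ratings (100 = complete control) made about 10 days after treatment, greenhouse-held plants compared with untreated controls. Treatments: postemergence sprays on one- to two-leaf plants (2–10 cm tall) and preemergence directed soil sprays after planting in loam–sand, chemicals formulated in non-phytotoxic solvent containing surfactant.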

morningglory = experiment: Test C pre-/postemergence herbicide test; format: in vivo, Ipomoea coccinea
Summary of the method: as §1

foxtail, giant = experiment: Test C pre-/postemergence herbicide test; format: in vivo, Setaria faberii
Summary of the method: as §1

giant foxtail = experiment: Test A pre-/postemergence herbicide test; format: in vivo, Setaria faberii
Summary of the method: as §2

barnyardgrass [2] = experiment: Test C pre-/postemergence herbicide test; format: in vivo, Echinochloa crus-galli
Summary of the method: as §1

pigweed = experiment: Test A pre-/postemergence herbicide test; format: in vivo, Amaranthus retroflexus
Summary of the method: as §2

velvetleaf = experiment: Test C pre-/postemergence herbicide test; format: in vivo, Abutilon theophrasti
Summary of the method: as §1

waterhemp = experiment: Test C pre-/postemergence herbicide test; format: in vivo, Amaranthus rudis
Summary of the method: as §1

galium = experiment: Test C pre-/postemergence herbicide test; format: in vivo, Galium aparine; details: Preemergence
Summary of the method: as §1

crabgrass, large = experiment: Test C pre-/postemergence herbicide test; format: in vivo, Digitaria sanguinalis
Summary of the method: as §1

[3] = Postemergence, 16 g ai/ha, scale 0 to 100 (0 no effect, 100 complete control)
[4] = Postemergence, 31 g ai/ha, scale 0 to 100 (0 no effect, 100 complete control)
[5] = Postemergence, 62 g ai/ha, scale 0 (no effect) to 100 (complete control)
[6] = Postemergence, 125 g ai/ha, scale 0 to 100 (0 no effect, 100 complete control)
[7] = Preemergence, 31 g ai/ha, scale 0 to 100, 0 is no effect and 100 is complete control
[8] = Preemergence, 62 g ai/ha, scale 0 to 100 (0 no effect, 100 complete control)
[9] = Preemergence, 125 g ai/ha, scale 0 to 100 (0 no effect, 100 complete control)
[10] = Preemergence, 16 g ai/ha, scale 0 to 100
[11] = 125 g ai/ha, scale 0 to 100 (0 no effect, 100 complete control)
[12] = Postemergence, 125 g ai/ha, visual rating on 0 to 100 scale (0 no effect, 100 complete control), approx. 10 days
[13] = Postemergence, 500 g ai/ha, 0 to 100 scale (0 no effect, 100 complete control)
[14] = Preemergence, 125 g ai/ha, 0 to 100 scale where 0 is no effect and 100 is complete control
[15] = Preemergence, 500 g ai/ha, visual rating on 0 to 100 scale (0 no effect, 100 complete control)

CN1CC(c2ccc(C(F)(F)F)cc2)C(C(=O)Nc2ccccc2F)C1=O (stereo not shown) [Compound 304]
Plant response rating, Lambsquarters (lambsquarters; [3]): 65 | Plant response rating, Lambsquarters (lambsquarters; [4]): 35 | Plant response rating, Lambsquarters (lambsquarters; [5]): 75 | Plant response rating, Lambsquarters (lambsquarters; [6]): 70 | Lambsquarters plant response rating (lambsquarters; [7]): 65 | Lambsquarters plant response rating (lambsquarters; [8]): 70 | Plant response rating, Lambsquarters (lambsquarters; [9]): 80 | Plant response rating, Lambsquarters (lambsquarters; [10]): 30 | Plant response rating, Oat, Wild (oat, wild; 16 g ai/ha, scale 0 to 100 (0 no effect, 100 complete control)): 0 | Plant response rating, Oat, Wild (oat, wild; 31 g ai/ha, scale 0 to 100 (0 no effect, 100 complete control)): 0 | Plant response rating, Oat, Wild (oat, wild; 62 g ai/ha, scale 0 (no effect) to 100 (complete control)): 0 | Plant response rating, Oat, Wild (oat, wild; [11]): 0 | Plant response rating, Barnyardgrass (barnyardgrass [1]; [12]): 80 | Plant response rating, Barnyardgrass (barnyardgrass [1]; [13]): 90 | Plant response rating, Barnyardgrass (barnyardgrass [1]; [14]): 90 | Barnyardgrass plant response rating (barnyardgrass [1]; [15]): 90 | Plant response rating, Morningglory (morningglory; [3]): 20 | Plant response rating, Morningglory (morningglory; [4]): 50 | Plant response rating, Morningglory (morningglory; [5]): 20 | Plant response rating, Morningglory (morningglory; [6]): 45 | Morningglory plant response rating (morningglory; [7]): 5 | Morningglory plant response rating (morningglory; [8]): 50 | Plant response rating, Morningglory (morningglory; [9]): 40 | Plant response rating, Morningglory (morningglory; [10]): 0 | Plant response rating, Foxtail, Giant (foxtail, giant; [3]): 0 | Plant response rating, Foxtail, Giant (foxtail, giant; [4]): 0 | Plant response rating, Foxtail, Giant (foxtail, giant; [5]): 10 | Plant response rating, Foxtail, Giant (foxtail, giant; [6]): 45 | Foxtail, Giant plant response rating (foxtail, giant; [7]): 90 | Foxtail, Giant plant response rating (foxtail, giant; [8]): 95 | Plant response rating, Foxtail, Giant (foxtail, giant; [9]): 95 | Plant response rating, Foxtail, Giant (foxtail, giant; [10]): 90 | Plant response rating, Foxtail, Giant (giant foxtail; [12]): 80 | Plant response rating, Foxtail, Giant (giant foxtail; [13]): 80 | Plant response rating, Foxtail, Giant (giant foxtail; [14]): 90 | Foxtail, Giant plant response rating (giant foxtail; [15]): 90 | Plant response rating, Barnyardgrass (barnyardgrass [2]; [3]): 0 | Plant response rating, Barnyardgrass (barnyardgrass [2]; [4]): 0 | Plant response rating, Barnyardgrass (barnyardgrass [2]; [5]): 0 | Plant response rating, Barnyardgrass (barnyardgrass [2]; [6]): 40 | Barnyardgrass plant response rating (barnyardgrass [2]; [7]): 85 | Barnyardgrass plant response rating (barnyardgrass [2]; [8]): 90 | Plant response rating, Barnyardgrass (barnyardgrass [2]; [9]): 95 | Plant response rating, Barnyardgrass (barnyardgrass [2]; [10]): 85 | Plant response rating, Pigweed (pigweed; [12]): 40 | Plant response rating, Pigweed (pigweed; [13]): 60 | Plant response rating, Pigweed (pigweed; [14]): 70 | Pigweed plant response rating (pigweed; [15]): 80 | Plant response rating, Velvetleaf (velvetleaf; [3]): 0 | Plant response rating, Velvetleaf (velvetleaf; [4]): 5 | Plant response rating, Velvetleaf (velvetleaf; [5]): 15 | Plant response rating, Velvetleaf (velvetleaf; [6]): 15 | Velvetleaf plant response rating (velvetleaf; [7]): 20 | Velvetleaf plant response rating (velvetleaf; [8]): 35 | Plant response rating, Velvetleaf (velvetleaf; [9]): 50 | Plant response rating, Velvetleaf (velvetleaf; [10]): 0 | Plant response rating, Waterhemp (waterhemp; [3]): 40 | Plant response rating, Waterhemp (waterhemp; [4]): 50 | Plant response rating, Waterhemp (waterhemp; [5]): 65 | Plant response rating, Waterhemp (waterhemp; [6]): 80 | Waterhemp plant response rating (waterhemp; [7]): 75 | Waterhemp plant response rating (waterhemp; [8]): 80 | Plant response rating, Waterhemp (waterhemp; [9]): 85 | Plant response rating, Waterhemp (waterhemp; [10]): 70 | Galium plant response rating (galium; 31 g ai/ha, scale 0 to 100, 0 is no effect and 100 is complete control): 85 | Galium plant response rating (galium; 62 g ai/ha, scale 0 to 100 (0 no effect, 100 complete control)): 95 | Plant response rating, Galium (galium; [11]): 85 | Plant response rating, Galium (galium; 16 g ai/ha, scale 0 to 100): 100 | Plant response rating, Crabgrass, Large (crabgrass, large; [3]): 10 | Plant response rating, Crabgrass, Large (crabgrass, large; [4]): 10 | Plant response rating, Crabgrass, Large (crabgrass, large; [5]): 60 | Plant response rating, Crabgrass, Large (crabgrass, large; [6]): 80 | Crabgrass, Large plant response rating (crabgrass, large; [7]): 95 | Crabgrass, Large plant response rating (crabgrass, large; [8]): 95 | Plant response rating, Crabgrass, Large (crabgrass, large; [9]): 98 | Plant response rating, Crabgrass, Large (crabgrass, large; [10]): 90
